In the experiment the test system is platelet reactivity. As to the kind of experiment: Platelet reactivity by the VASP assay after ticagrelor loading dose. Type of experiment: in vivo, human (patients with myocardial infarction). Particulars: median [interquartile range]; for time to achieve platelet inhibition below the cut-off value for HPR (VASP): HPR = platelet reactivity index >50%. On the procedure: Consecutive STEMI and NSTEMI patients admitted to the study site (Cardiology Department, Dr. A. Jurasz University Hospital, Bydgoszcz, Poland) were screened for eligibility. After admission to the study centre, confirmation of the initial diagnosis of STEMI or NSTEMI, and provision of a written informed consent to participate in the trial, all study participants received an oral 300 mg LD of plain aspirin (Polpharma SA, Starogard Gdański, Poland) and 180 mg LD ticagrelor in integral tablets with 250 mL tap water. Subsequently, within 15 minutes of ticagrelor LD, all patients underwent coronary angiography followed by PCI as required. During the periprocedural period, all study participants received unfractionated heparin in body weight adjusted dose according to the European Society of Cardiology (ESC) recommendations. Plasma concentrations of ticagrelor and its active metabolite, as well as their antiplatelet effect, were evaluated according to the sampling schedule employed at our centre in previous PK/PD study (pre-treatment, 0.5 h, 1 h, 2 h, 3 h, 4 h, 6 h and 12 h post ticagrelor LD).
Blood samples for PK/PD evaluation were obtained from an 18-gauge cannula inserted into one of the forearm veins. The first 5 mL blood was discarded to avoid spontaneous platelet activation. In each patient specimens were collected at the eight pre-defined time. Detailed description of blood sample processing has been published in the study protocol (S1 File).
Platelet reactivity was assessed using VASP and Multiplate. The VASP assay (Biocytex, Inc., Marseille, France) was used in all study participants, while Multiplate (Roche Diagnostics International Ltd., Rotkreuz, Switzerland) was used in all except in those treated with glycoprotein (GP) IIb/IIIa receptor inhibitors. Pharmacodynamic evaluation was performed according to the manufacturers' instructions. HPR was defined as platelet reactivity index >50% for the VASP assay and AUC >46 units (U) for Multiplate. […]
Table 1 Inclusion and exclusion criteria of the PINPOINT study
Inclusion criteria Exclusion criteria
▸ Provision of informed consent prior to any ▸ Treatment with ticlopidine, clopidogrel, prasugrel or ticagrelor within study-specific procedure 14 days before the study enrolment
▸ Diagnosis of STEMI or NSTEMI ▸ Hypersensitivity to ticagrelor
▸ Men or non-pregnant women ▸ Current treatment with oral anticoagulant or chronic therapy with low-molecular-weight heparin
▸ Provision of informed consent for angiography ▸ Active bleeding […]
▸ History of intracranial haemorrhage
▸ Fibrinolytic treatment during the index event
▸ Recent gastrointestinal bleeding (within 30 days)
▸ History of coagulation disorders
▸ History of moderate or severe hepatic impairment
▸ History of major surgery or severe trauma (within 3 months)
▸ Second or third degree atrioventricular block during screening for […]
▸ Patient requiring dialysis
▸ Manifest infection or inflammatory state
▸ Killip class III or IV during screening for eligibility
▸ Current therapy with strong CYP3A inhibitors or strong CYP3A […]
NSTEMI, non-ST-elevation myocardial infarction; PCI, percutaneous coronary intervention; STEMI, ST-elevation myocardial infarction. […]
Assessment of pharmacodynamics ticagrelor, β-blockers, statins and ACE inhibitors or angio-Platelet VASP assay (Biocytex, Marseille, France) will be tensin II receptor blockers, if not contraindicated. applied to all study participants at all predeﬁned time Morphine will be used at the discretion of the ambulance points. MEA (Roche Diagnostics International, Rotkreuz, staff and the attending physician. The type of implanted Switzerland) will be used at all predeﬁned time points stent and choice of the access site for coronary invasive ( ﬁgure 1) for all study participants with the exception of procedure (radial or femoral ) will be at the discretion of those treated with glycoprotein IIb/IIIa (GP IIb/IIIa) the operator. During the periprocedural period, all study […]

Regarding `CCCSc1nc(N[C@@H]2C[C@H]2c2ccc(F)c(F)c2)c2nnn([C@@H]3C[C@H](OCCO)[C@@H](O)[C@H]3O)c2n1` [ticagrelor], the “Platelet reactivity (VASP)” value (NSTEMI, 0.5 h after 180 mg ticagrelor LD) is 57.0 [30.2–89.4] %; the “Platelet reactivity (VASP)” value (NSTEMI, 1 h after 180 mg ticagrelor LD) is 40.8 [23.7–69.2] %; the “Platelet reactivity (VASP)” value (NSTEMI, 3 h after 180 mg ticagrelor LD) was 32.2 [14.7–38.7] %; the “Platelet reactivity (VASP)” value (NSTEMI, 4 h after 180 mg ticagrelor LD) is 21.1 [17.5–43.1] %; the “Platelet reactivity (VASP)” value (STEMI, 0.5 h after 180 mg ticagrelor LD) is 83.1 [74.5–87.8] %; the “Platelet reactivity (VASP)” value (STEMI, 1 h after 180 mg ticagrelor LD) is 80.7 [40.4–90.5] %. Besides, the “Platelet reactivity (VASP)” value (STEMI, 3 h after 180 mg ticagrelor LD) is 45.0 [26.4–80.9] % and the “Platelet reactivity (VASP)” value (STEMI, 4 h after 180 mg ticagrelor LD) is 36.5 [22.2–69.7] %. The “time to achieve platelet inhibition below the cut-off value for HPR (VASP)” value is, setting by setting: (NSTEMI) 1.0 [0.5–2.0] h; (STEMI) 2.5 [1.0–6.0] h.

(Values after article PMC5638327, “Comparison of bioavailability and antiplatelet action of ticagrelor in patients with ST-elevation myocardial infarction and non-ST-elevation myocardial infarction: A prospective, observational, single-centre study” (PLoS ONE, 2017).)
